In brackets after ≈: the same amount, converted by molar mass. Like-named read-outs stand apart in the source and are kept apart here.
Columns and labels:
Helicobacter pylori = experiment: MIC, broth dilution method, Helicobacter pylori; type: cell-based; details: for MIC: Helicobacter pylori
Description: (§1) Antibacterial activity can be determined by several standard methods well known by those skilled in the art, including disc diffusions methods, broth dilution minimal inhibitory concentration (MIC) methods, etc., including the detailed method outlined below and as defined by the National Committee of Clinical Laboratory Standards in the United States.
(§2) MIC, Broth Dilution Method
(§3) Cultures of bacteria are initially brought up from the freezer stocks onto chocolate agar plates by streaking a loop-full, then incubated for 18 hours at 35-37° C. in a 5% CO2 incubator.
(§4) Five to 10 colonies are picked from the chocolate agar plate for subculture to Brain-Heart Infusion (BHI) broth or Mueller Hinton broth or BHI containing 4% serum and incubated as described.
(§5) Evaluate the optical density of the organisms in the wells of a 96 well microtiter plate with and without the test compound. The optical density of the organisms in the presence of an active compound will be less than the optical density of the same organism untreated. The activity of the compounds is described as either negative or the lowest concentration inhibiting growth. The results are depicted in Table III, where +/− represents the least activity and ++++ represents the greatest activity. In Table IV, the results are depicted where MIC represents the lowest concentration of antibiotic that inhibits bacterial growth.

Campylobacter jejuni = experiment: MIC, broth dilution method, Campylobacter jejuni; type: cell-based; details: for MIC: Campylobacter jejuni
Description: as §1, §2, §3, §4, §5

bacteria = experiment: Antibacterial activity, broth dilution (Table III); type: cell-based; details: graded activity, organism not given
Description: as §1, §2, §3, §4, §5

[1] = Table IV, MIC, lowest concentration that inhibits bacterial growth, read-out: Antibacterial Activity (micrograms/ml) Helicobacter pylori
[2] = Table IV, MIC, lowest concentration that inhibits bacterial growth, read-out: Antibacterial Activity (micrograms/ml) Campylobacter jejuni
[3] = Table IV, MIC, lowest concentration that inhibits bacterial growth
[4] = Table V, read-out: MIC (μg/mL) H. pylori
[5] = Table V, read-out: MIC (μg/mL) C. jejuni

MIC (Helicobacter pylori; [4]) [µg/mL]	MIC (Campylobacter jejuni; [5]) [µg/mL]	Compound	MIC (Helicobacter pylori; [1]) [µg/mL]	melting point	MIC (Campylobacter jejuni; [2]) [µg/mL]	further results
		CCOC(=O)C1CCc2ccc(OC)cc2NC1=O (racemic) [Example 3, 3(R,S)-Ethoxycarbonyl-8-methoxy-2,3,4,5-tetrahydro-1H-1-benzazepine-2-one]	50 to 100 (≈ 190 to 380 µM)	89 to 91 °C	100 (≈ 380 µM)	
		CCN1C(=O)C(C(=O)O)CCc2ccc(OC)cc21 (racemic) [Example 5, 3(R,S)-Carboxyl-1-ethyl-8-methoxy-2,3,4,5-tetrahydro-1H-1-benzazepine-2-one]	100 (≈ 380 µM)	120 to 121 °C	> 200	
		COc1ccc2c(c1)NC(=O)C(C(=O)OC(C)(C)C)CC2 (racemic) [Example 11, 3(R,S)-tert-Butoxycarbonyl-8-methoxy-2,3,4,5-tetrahydro-1 H-1-benzazepine-2-one]	50 (≈ 172 µM)	145 to 147 °C	100 to 200 (≈ 343 to 686 µM)	
		CCN1C(=O)C(C(=O)OC(C)(C)C)CCc2ccc(OC)cc21 (racemic) [Example 12, 3(R,S)-tert-Butoxycarbonyl-1-ethyl-8-methoxy-2,3,4,5-tetrahydro-1H-1-benzazepine-2-one]	50 (≈ 157 µM)	132 to 133 °C	> 200	
		CCN1C(=O)C(C(=O)OC(C)(C)C)CCc2cc(Br)c(OC)cc21 (racemic) [Example 13, 7-Bromo-3(R,S)-tert-butoxycarbonyl-1-ethyl-8-methoxy-2,3,4,5-tetrahydro-1H-1-benzazepine-2-one]	6.25 to 12.5 (≈ 15.7 to 31.4 µM)	131 to 132 °C	> 200	
		CCN1C(=O)C(C(=O)O)CCc2cc(N3CCNCC3)c(OC)cc21.Cl (racemic) [Example 15, 3(R, S)-Carboxyl-1-ethyl-8-methoxy-7-(piperazin-1-yl)-2,3,4,5-tetrahydro-1H-1-benzazepine-2-one hydrochloride]	> 200	173 to 176 °C (dec.)	> 200	Antibacterial Activity (bacteria): −
		CCN1C(=O)C(C(=O)OC(C)(C)C)C=Cc2ccc(OC)cc21 (racemic) [Example 16, 3(R,S)-tert-Butoxycarbonyl-1-ethyl-8-methoxy-2,3-dihydro-1H-1-benzazepine-2-one]	> 6.25	173 to 174 °C	> 200	Antibacterial Activity (bacteria): ++++
		CCN1C(=O)C(C(=O)OC(C)(C)C)CCc2cc(N3CCNCC3)c(OC)cc21 (racemic) [Example 18, 3(R,S)-tert-Butoxycarbonyl-1-ethyl-8-methoxy-7-(piperazin-1-yl)-2,3,4,5-tetrahydro-1H-1-benzazepine-2-one]	50 (≈ 124 µM)	165 °C (dec.)	> 200	
		COc1ccc2c(c1)N(C(=O)OC(C)(C)C)C(=O)C(C(=O)OC(C)(C)C)CC2 (racemic) [Example 23, 1-tert-Butoxycarbonyl-3(R,S)-tert-butoxycarbonyl-8-methoxy-2,3,4,5-tetrahydro-1H -benzazepine-2-one]	50 (≈ 128 µM)	91 to 92 °C	200 (≈ 511 µM)	
		CCN1C(=O)C(C(=O)NC(C)(C)C)CCc2cc(Br)c(OC)cc21 (racemic) [Example 29, 7-bromo-3(R,S)-N-(tert-butyl)aminocarbonyl-1-ethyl-8-methoxy-2,3,4,5-tetrahydro-1H-1-benzazepine-2-one]	> 200		> 200	Antibacterial Activity (bacteria): −
		COc1cc2c(cc1N1CCN(C(=O)OCc3ccccc3)CC1)CCC(C(=O)OC(C)(C)C)C(=O)N2Cc1cccc(F)c1 (racemic) [Example 31, 7-[(4-Benzyloxycarbonyl)piperazin-1-yl]-3(R,S)-tert-butoxycarbonyl-1-(3-fluorobenzyl)-8-methoxy-2,3,4,5-tetrahydro-1 H-1-benzazepine-2-one]				Antibacterial Activity (bacteria): ++++; Antibacterial Activity (micrograms/ml) Helicobacter pylori (Helicobacter pylori; [3]): 0.78 micrograms/ml; Antibacterial Activity (micrograms/ml) Campylobacter jejuni (Campylobacter jejuni; [3]): >200 micrograms/ml
		CCOC(=O)NC(=S)Nc1cc2c(cc1OC)NC(=O)C(C(=O)OC(C)(C)C)CC2 (racemic) [Example 176, 3(R,S)-tert-Butoxycarbonyl-7-[(ethoxycarbonylamino)thiocarbonyl)]amino-8-methoxy-2,3,4,5-tetrahydro-1H-1-benzazepine-2-one]				Antibacterial Activity (bacteria): ++++; Antibacterial Activity (micrograms/ml) Helicobacter pylori (Helicobacter pylori; [3]): 4 micrograms/ml; MIC (μg/mL) H. pylori (Helicobacter pylori; Table V): 4 µg/mL (≈ 9.14 µM); Antibacterial Activity (micrograms/ml) Campylobacter jejuni (Campylobacter jejuni; [3]): >250 micrograms/ml; MIC (μg/mL) C. jejuni (Campylobacter jejuni; Table V): >250, μg/mL
		COc1ccc2c(c1)NC(=O)CCC2 [Example 2, 8-Methoxy-2,3,4,5-tetrahydro-1H-1-benzazepine-2-one]	> 200	105 to 106 °C	50 (≈ 261 µM)	
		CCN1C(=O)CCCc2cc(Br)c(OC)cc21 [Example 9, 7-Bromo-1-ethyl-8-methoxy-2,3,4,5-tetrahydro-1H-1-benzazepine-2-one]	100 (≈ 335 µM)	133 to 135 °C	> 200	
		CCN1C(=O)CCCc2cc(N3CCN(C)CC3)c(OC)cc21 [Example 10]				Antibacterial Activity (bacteria): +/−; Antibacterial Activity (micrograms/ml) Helicobacter pylori (Helicobacter pylori; [3]): >200 micrograms/ml; Antibacterial Activity (micrograms/ml) Campylobacter jejuni (Campylobacter jejuni; [3]): >200 micrograms/ml
		CCN1C(=O)CCCc2cc(N3CCNCC3)c(OC)cc21.Cl [Example 22, 1-ethyl-8-methoxy-7-(piperazin-1-yl)-2,3,4,5-tetrahydro-1H-1-benzazepine-2-one hydrochloride]	> 200		> 200	Antibacterial Activity (bacteria): −
		COc1cc2c(cc1Br)CCCC(=O)N2 [Example 24, 7-Bromo-8-methoxy-2,3,4,5-tetrahydro-1H-1-benzazepine-2-one]	100 (≈ 370 µM)	180 to 182 °C	> 200	
1 (≈ 4.5 µM)	30 (≈ 135 µM)	O=C1CCCc2cc([N+](=O)[O-])c(O)cc2N1 [Example 175, 8-Hydroxy-7-nitro-2,3,4,5-tetrahydro-1 H-1-benzazepine-2-one]	1 (≈ 4.5 µM)	239 to 240 °C	30 (≈ 135 µM)	
64 (≈ 397 µM)	> 250	O=C1CCCc2ccccc2N1 [Example 187, 2,3,4,5-tetrahydro-1H-1-benzazepine-2-one]				
32 (≈ 181 µM)	> 250	O=C1CCCc2c(O)cccc2N1 [Example 188, 6-Hydroxy-2,3,4,5-tetrahydro-1H-1-benzazepine-2-one]				
125 (≈ 705 µM)	> 250	O=C1CCCc2cc(O)ccc2N1 [Example 189, 7-Hydroxy-2,3,4,5-tetrahydro-H-1-benzazepine-2-one]				
64 (≈ 313 µM)	250 (≈ 1220 µM)	CCN1C(=O)CCCc2ccc(N)cc21 [Example 190, 8-Amino-1-ethyl-2,3,4,5-tetrahydro-1H-1-benzazepine-2-one]				
16 (≈ 59.7 µM)	8 (≈ 29.8 µM)	CCN1C(=O)CCCc2ccc(Br)cc21 [Example 191, 8-Bromo-1-ethyl-2,3,4,5-tetrahydro-1H-1-benzazepine-2-one]				
4 (≈ 11.8 µM)	> 250	COc1ccc2c(c1)NC(=O)C(C(=O)NOCc1ccccc1)CC2 (centres unmarked) [Example 193, 3-Benzyloxyaminocarbonyl-8-methoxy-2,3,4,5-tetrahydro-1H-1-benzazepine-2-one]		162 to 164 °C		
125 (≈ 499 µM)	> 250	COc1ccc2c(c1)NC(=O)C(C(=O)NO)CC2 (centres unmarked) [Example 197, 3-Hydoxyaminocarbonyl-8-methoxy-2,3,4,5-tetrahydro-1H-1-benzazepine-2-one]				
		COc1cc2c(cc1[N+](=O)[O-])CCC(C(=O)OC(C)(C)C)C(=O)N2CCOC1CCCCO1 [Example 224, 3(R,S)-tert-Butoxycarbonyl-8-methoxy-7-nitro-1-[2-(tetrahydro-2H-pyran-2-yloxy)]ethyl-2,3,4,5-tetrahydro-1H-1-benzazepine-2-one]				MIC (μg/mL) H. pylori (Helicobacter pylori; Table V): 60 µg/mL (≈ 129 µM); MIC (μg/mL) C. jejuni (Campylobacter jejuni; Table V): >250, μg/mL

Compound	MIC (Helicobacter pylori; [4]) [µg/mL]	MIC (Campylobacter jejuni; [5]) [µg/mL]	MIC (Helicobacter pylori; [1]) [µg/mL]	melting point	MIC (Campylobacter jejuni; [2]) [µg/mL]	further results
CCN1C(=O)C(C(=O)OC(C)(C)C)CCc2ccc(O)cc21 (racemic) [Example 178, 3(R,S)-tert-Butoxycarbonyl-1-ethyl-8-hydroxy-2,3,4,5-tetrahydro-1H-1-benzazepine-2-one]	16 (≈ 52.4 µM)	> 200		154 to 156 °C		
COc1cc2c(cc1[N+](=O)[O-])CCC(C(=O)OC(C)(C)C)C(=O)N2C(=O)OC(C)(C)C (racemic) [Example 195, 1,3(R,S)-Di(tert-butoxycarbonyl)-8-methoxy-7-nitro-2,3,4,5-tetrahydro-1H-1-benzazepine-2-one]	4 (≈ 9.16 µM)	60 (≈ 137 µM)		142 to 144 °C (dec.)		
CC(C)(C)OC(=O)C1CCc2cc([N+](=O)[O-])c(O)cc2NC1=O (racemic) [Example 220, 3(R,S)-tert-Butoxycarbonyl-8-hydroxyl-7-nitro-2,3,4,5-tetrahydro-1H-1-benzazepine-2-one]	8 (≈ 24.8 µM)	250 (≈ 776 µM)		189 to 191 °C (dec.)		
